Values joined by “and” are separate entries in the source; they are usually repeats but may differ in a detail not shown here. Equal values may be shown once.
O=C(C(F)(F)C(F)(F)F)C(F)(C(F)(F)F)C(F)(F)F [dodecafluoro-2-methylpentan-3-one]
Settings	thermal conductivity
416.9 K, 36 kPa, Gas, hot wire	0.02006 W/m/K
416.9 K, 371 kPa, Gas, hot wire	0.0221 W/m/K
416.9 K, 588 kPa, Gas, hot wire	0.02223 W/m/K
416.9 K, 16292 kPa, Liquid, transient hot wire	0.05129 W/m/K
416.91 K, 372 kPa, Gas, hot wire	0.02173 W/m/K
416.94 K, 50897 kPa, Liquid, transient hot wire	0.06577 W/m/K
416.94 K, 50918 kPa, Liquid, transient hot wire	0.06559 W/m/K
416.96 K, 1022 kPa, Gas, transient hot wire	0.02164 W/m/K
416.96 K, 2206 kPa, Liquid, transient hot wire	0.04045 W/m/K
416.96 K, 24851 kPa, Liquid, transient hot wire	0.05549 W/m/K
416.96 K, 24868 kPa, Liquid, transient hot wire	0.05555 W/m/K
416.96 K, 35761 kPa, Liquid, transient hot wire	0.06013 W/m/K
416.97 K, 1022 kPa, Gas, transient hot wire	0.02164 W/m/K
416.97 K, 2207 kPa, Liquid, transient hot wire	0.04051 W/m/K
416.97 K, 35765 kPa, Liquid, transient hot wire	0.06009 W/m/K
416.98 K, 10573 kPa, Liquid, transient hot wire	0.04835 W/m/K
416.98 K, 10595 kPa, Liquid, transient hot wire	0.04788 W/m/K
417 K, 369 kPa, Gas, hot wire	0.0224 W/m/K
417 K, 1132 kPa, Gas, transient hot wire	0.02284 W/m/K
417.01 K, 369 kPa, Gas, hot wire	0.02218 W/m/K
417.01 K, 1132 kPa, Gas, transient hot wire	0.02288 W/m/K
417.02 K, 6421 kPa, Liquid, transient hot wire	0.04518 W/m/K
417.03 K, 36 kPa, Gas, hot wire	0.01958 W/m/K
417.04 K, 587 kPa, Gas, hot wire	0.0216 W/m/K
417.04 K, 6421 kPa, Liquid, transient hot wire	0.0448 W/m/K
417.05 K, 587 kPa, Gas, hot wire	0.02156 W/m/K
417.06 K, 16291 kPa, Liquid, transient hot wire	0.05136 W/m/K
417.06 K, 16299 kPa, Liquid, transient hot wire	0.05141 W/m/K
417.07 K, 1170 kPa, Liquid, transient hot wire	0.03917 W/m/K
417.07 K, 50875 kPa, Liquid, transient hot wire	0.06482 W/m/K
417.08 K, 3783 kPa, Liquid, transient hot wire	0.04192 W/m/K
417.08 K, 3784 kPa, Liquid, transient hot wire	0.04234 W/m/K
417.08 K, 50878 kPa, Liquid, transient hot wire	0.06554 W/m/K
417.11 K, 1022 kPa, Gas, transient hot wire	0.02183 W/m/K
417.11 K, 1023 kPa, Gas, transient hot wire	0.02181 W/m/K
417.11 K, 24870 kPa, Liquid, transient hot wire	0.05563 W/m/K
417.11 K, 35758 kPa, Liquid, transient hot wire	0.06018 W/m/K
417.11 K, 35760 kPa, Liquid, transient hot wire	0.06018 W/m/K
417.12 K, 368 kPa, Gas, hot wire	0.02238 W/m/K
417.12 K, 24862 kPa, Liquid, transient hot wire	0.05569 W/m/K
417.13 K, 2206 kPa, Liquid, transient hot wire	0.04049 W/m/K
417.13 K, 10587 kPa, Liquid, transient hot wire	0.0479 W/m/K
417.14 K, 36 kPa, Gas, hot wire	0.02006 W/m/K
417.15 K, 141 kPa, Gas, hot wire	0.02023 W/m/K and 0.0203 W/m/K
417.15 K, 588 kPa, Gas, hot wire	0.02157 W/m/K
417.15 K, 2206 kPa, Liquid, transient hot wire	0.04048 W/m/K
417.15 K, 10596 kPa, Liquid, transient hot wire	0.04784 W/m/K
417.16 K, 36 kPa, Gas, hot wire	0.01976 W/m/K
417.16 K, 367 kPa, Gas, hot wire	0.02181 W/m/K
417.16 K, 587 kPa, Gas, hot wire	0.02144 W/m/K
417.17 K, 1132 kPa, Gas, transient hot wire	0.02232 W/m/K
417.21 K, 6422 kPa, Liquid, transient hot wire	0.04496 W/m/K
417.21 K, 50843 kPa, Liquid, transient hot wire	0.06558 W/m/K
417.22 K, 6424 kPa, Liquid, transient hot wire	0.04481 W/m/K
417.22 K, 16290 kPa, Liquid, transient hot wire	0.05134 W/m/K
417.23 K, 16286 kPa, Liquid, transient hot wire	0.05137 W/m/K
417.23 K, 50866 kPa, Liquid, transient hot wire	0.06561 W/m/K
417.27 K, 36 kPa, Gas, hot wire	0.02022 W/m/K and 0.02032 W/m/K
417.28 K, 1023 kPa, Gas, transient hot wire	0.02198 W/m/K and 0.02197 W/m/K
417.28 K, 3783 kPa, Liquid, transient hot wire	0.04235 W/m/K
417.28 K, 3784 kPa, Liquid, transient hot wire	0.04243 W/m/K
417.28 K, 24853 kPa, Liquid, transient hot wire	0.0557 W/m/K
417.28 K, 24856 kPa, Liquid, transient hot wire	0.0557 W/m/K
417.28 K, 35752 kPa, Liquid, transient hot wire	0.06016 W/m/K
417.28 K, 35756 kPa, Liquid, transient hot wire	0.06019 W/m/K
417.29 K, 367 kPa, Gas, hot wire	0.02172 W/m/K
417.29 K, 996 kPa, Gas, transient hot wire	0.02211 W/m/K and 0.02184 W/m/K
417.31 K, 140 kPa, Gas, hot wire	0.02018 W/m/K
417.32 K, 140 kPa, Gas, hot wire	0.02001 W/m/K
417.32 K, 10582 kPa, Liquid, transient hot wire	0.04781 W/m/K
417.32 K, 10584 kPa, Liquid, transient hot wire	0.04786 W/m/K
417.33 K, 788 kPa, Gas, transient hot wire	0.02096 W/m/K
417.33 K, 791 kPa, Gas, transient hot wire	0.02134 W/m/K
417.33 K, 2205 kPa, Liquid, transient hot wire	0.04065 W/m/K
417.34 K, 2205 kPa, Liquid, transient hot wire	0.0406 W/m/K
417.36 K, 50814 kPa, Liquid, transient hot wire	0.06551 W/m/K
417.37 K, 50821 kPa, Liquid, transient hot wire	0.0652 W/m/K
417.39 K, 16280 kPa, Liquid, transient hot wire	0.05131 W/m/K
417.4 K, 6421 kPa, Liquid, transient hot wire	0.0453 W/m/K
417.4 K, 6422 kPa, Liquid, transient hot wire	0.04487 W/m/K
417.41 K, 597 kPa, Gas, transient hot wire	0.02073 W/m/K
417.42 K, 36 kPa, Gas, hot wire	0.02028 W/m/K and 0.02029 W/m/K
417.43 K, 595 kPa, Gas, transient hot wire	0.02069 W/m/K
417.43 K, 1024 kPa, Gas, transient hot wire	0.02226 W/m/K and 0.02228 W/m/K

From the NIST ThermoML archive (doi:10.1021/acs.jced.8b00132)
